The text below walks through data of patent US20160051665A1, “INDUCTION OF IMMUNE RESPONSE” (priority 2010, published 2016).

The structures appear in SMILES notation. Entries after “also recorded” stand apart in the source; their conditions may differ.

One data set has as its target T1, glucosidase I (Homo sapiens, UniProt Q13724).
T1 sequence (Q13724 1-837): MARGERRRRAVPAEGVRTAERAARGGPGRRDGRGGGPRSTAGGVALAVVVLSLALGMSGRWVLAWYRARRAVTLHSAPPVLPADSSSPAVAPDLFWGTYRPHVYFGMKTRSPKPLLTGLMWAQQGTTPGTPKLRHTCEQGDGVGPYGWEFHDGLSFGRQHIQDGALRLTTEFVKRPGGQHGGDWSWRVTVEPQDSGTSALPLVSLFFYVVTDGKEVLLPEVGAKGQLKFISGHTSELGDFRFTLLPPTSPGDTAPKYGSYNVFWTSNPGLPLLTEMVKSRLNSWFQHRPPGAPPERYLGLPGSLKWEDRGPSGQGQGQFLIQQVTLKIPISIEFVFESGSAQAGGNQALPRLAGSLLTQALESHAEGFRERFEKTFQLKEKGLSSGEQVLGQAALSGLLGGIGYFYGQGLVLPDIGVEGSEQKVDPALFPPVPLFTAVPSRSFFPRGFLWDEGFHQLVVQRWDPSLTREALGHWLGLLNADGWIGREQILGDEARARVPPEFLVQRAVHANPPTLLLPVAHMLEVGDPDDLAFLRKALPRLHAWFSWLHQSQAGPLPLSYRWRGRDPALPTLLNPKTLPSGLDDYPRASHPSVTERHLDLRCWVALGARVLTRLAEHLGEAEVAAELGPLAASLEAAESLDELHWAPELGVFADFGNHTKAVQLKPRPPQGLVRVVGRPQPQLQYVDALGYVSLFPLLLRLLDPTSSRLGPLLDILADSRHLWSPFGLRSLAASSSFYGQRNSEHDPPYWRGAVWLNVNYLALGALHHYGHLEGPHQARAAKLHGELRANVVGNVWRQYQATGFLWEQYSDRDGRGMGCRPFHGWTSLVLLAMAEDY
The following applies: cited from earlier work.

The nature of data set [1]: serum ALT, marker of hepatocellular injury, in woodchucks. It is filed as in vivo, woodchuck. The method, then: All experimental procedures involving woodchucks were performed under protocols approved by the Cornell University Institutional Animal Care and Use Committee. Woodchucks were born to WHV-negative females in environmentally controlled laboratory animal facilities and inoculated at 3 days of age with 5 million infectious doses of a standardized WHV inoculum (23). Woodchucks were selected as chronic WHV carriers based on persistent detection of WHV surface antigen (WHsAg) and WHV DNA in serum prior to treatments. All animals were free of HCC at the beginning of the study as determined by hepatic ultrasound examination and normal serum activity of γ-glutamyl-transferase (GGT).
Twenty adult chronically infected woodchucks were stratified by age, sex, body weight, serum viral load, and serum GGT activity into four treatment groups of five animals each. Drug was administered orally at 100 mg/kg (in sterile water), chosen after an initial dose finding trial. […] Prior to alum adsorption, vaccine was tested in naïve, WHV-susceptible animals and no residual virus was detected. […]
Serum WHV DNA was measured quantitatively by dot blot hybridization (assay sensitivity, ≧1.0×10^7 WHV genome equivalents per ml [WHVge/ml]) (25). Serum WHsAg, antibodies to WHV core antigen (anti-WHc), and WHV surface antigen (anti-WHs) were determined with WHV-specific enzyme immunoassays (26). […]

The test system of the next data set is woodchuck PBMCs. Put plainly: PBMC proliferation assay (stimulation index) with PBMCs of treated woodchucks. The data set is classed as in vivo. The method, then: T cell responses against WHY were determined using in vitro stimulators at concentrations optimal for cultures of woodchuck PBMCs (29, 30). Stimulators consisted of native 22-nm WHsAg (2 μg/ml), recombinant WHcAg (2 μg/ml), or synthetic peptides (10 μg/ml) corresponding to either native viral sequences or predicted N-de-glycosylated sequences (Table 1, below).
The in vitro proliferation assay using woodchuck PBMCs labeled dividing cells with [2-^3H]adenine (Amersham Pharmacia Biotech, Inc., Arlington Heights, Ill.). Woodchuck PBMCs were isolated from whole blood and stimulated as described (30, 31). Counts per minute of triplicate PBMC cultures were averaged and expressed as a stimulation index (SI) by dividing the average sample counts per minute in the presence of the stimulator by that observed in the absence of stimulator (six replicates). A SI value of ≧3.1 was considered to represent a positive, specific T-cell response.
Woodchucks chronically infected with WHV experienced significant immunological responses to envelope proteins following immunization with WHsAg-containing vaccines, especially in the context of low viral and antigen loads following treatment with an effective antiviral agent, 1-(2-fluoro-5-methyl-beta-L-arabinofuranosyl)-uracil (L-FMAU) (29, 35). […] Animals were scored as positive if cells proliferated above the cut-off value of 2: 3.1. […]

As for `CCCC(=O)O[C@H]1CN2CC[C@H](O)[C@@H]2[C@@H](O)[C@H]1O` [BuCas, 6-O-butanoyl castanospermine], the “potency as inhibitor of glucosidase I relative to deoxynojirimycin” value at glucosidase I is reported as “more potent inhibitors of glucosidase I than deoxynojirimycin”. The “ALT, Av(range)” value in data set [1] (week 0 (baseline)) was 7.4 (4-9) Units/L; in data set [1] (week 10) it was 15.6 (10-22) Units/L. The “PBMC response to paired N-peptides versus D-peptides” value in the data set on woodchuck PBMCs (glycosylation sequons at amino acids 4 and 146, from week 8 on, FIG. 4) is given as “responded more strongly to D-peptides versus N-peptides”. In addition, the “PBMC proliferation in response to WHV HBs antigens” value in the data set on woodchuck PBMCs (positive if SI ≧3.1, FIG. 3) is reported as “resulted in proliferation in response to WHV HBs antigens; also recorded: stimulated cellular immunity to viral antigen”.
